Measurements from patent publication EP4467141A1, “PYRAZOLO-QUINOLINES AS SELECTIVE INHIBITORS OF GENOTOXIC STRESS-INDUCED IKK/NF- KB PATHWAYS FOR CANCER THERAPY” (Max-Delbrück-Centrum für Molekulare Medizin in der …, priority 2023, dated 2024).

Columns and labels:
Test in all cases: Kinase panel study
Format in all cases: biochemical
Details in all cases: read-out: Percentage of inhibition; for inhibition at 1 µM: 1000nM; for inhibition at 10 µM: 10000nM
RPS6KB2 (p70S6Kb) = biological target: T1, RPS6KB2 (p70S6Kb) (Homo sapiens, UniProt Q9UBS0)
T1 construct: purchased Thermo Fisher Scientific
How it was run: (§1)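 Inhibition was measured in an outsourced in vitro kinase panel using the ZLyte or Adapta format under the provider's standard procedures. Values are percent inhibition at 10 µM or 1 µM compound, and IC50s were also obtained.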

RPS6KA5 (MSK1) = biological target: T2, RPS6KA5 (MSK1) (Homo sapiens, UniProt O75582)
T2 construct: purchased Thermo Fisher Scientific
How it was run: as §1

YES1 = biological target: T3, YES1 (Homo sapiens, UniProt P07947)
T3 construct: purchased Thermo Fisher Scientific
How it was run: as §1

CSNK2A2 (CK2 alpha 2) = biological target: T4, CSNK2A2 (CK2 alpha 2) (Homo sapiens, UniProt P19784)
T4 construct: purchased Thermo Fisher Scientific
How it was run: as §1

LRRK2 FL = biological target: T5, LRRK2 FL (Homo sapiens, UniProt Q5S007)
T5 construct: LRRK2 FL; purchased Thermo Fisher Scientific
How it was run: as §1

PAK3 = biological target: T6, PAK3 (Homo sapiens, UniProt O75914)
T6 construct: purchased Thermo Fisher Scientific
How it was run: as §1

PTK2B (FAK2) = biological target: T7, PTK2B (FAK2) (Homo sapiens, UniProt Q14289)
T7 construct: purchased Thermo Fisher Scientific
How it was run: as §1

PRKCQ (PKC theta) = biological target: T8, PRKCQ (PKC theta) (Homo sapiens, UniProt Q04759)
T8 construct: purchased Thermo Fisher Scientific
How it was run: as §1

ABL1 T315I = biological target: T9, ABL1 T315I (Homo sapiens, UniProt P00519, T315I)
T9 construct: purchased Thermo Fisher Scientific
How it was run: as §1

IKBKE (IKK epsilon) = biological target: T10, IKBKE (IKK epsilon) (Homo sapiens, UniProt Q14164)
T10 construct: purchased Thermo Fisher Scientific
T10 sequence (Q14164 1-716): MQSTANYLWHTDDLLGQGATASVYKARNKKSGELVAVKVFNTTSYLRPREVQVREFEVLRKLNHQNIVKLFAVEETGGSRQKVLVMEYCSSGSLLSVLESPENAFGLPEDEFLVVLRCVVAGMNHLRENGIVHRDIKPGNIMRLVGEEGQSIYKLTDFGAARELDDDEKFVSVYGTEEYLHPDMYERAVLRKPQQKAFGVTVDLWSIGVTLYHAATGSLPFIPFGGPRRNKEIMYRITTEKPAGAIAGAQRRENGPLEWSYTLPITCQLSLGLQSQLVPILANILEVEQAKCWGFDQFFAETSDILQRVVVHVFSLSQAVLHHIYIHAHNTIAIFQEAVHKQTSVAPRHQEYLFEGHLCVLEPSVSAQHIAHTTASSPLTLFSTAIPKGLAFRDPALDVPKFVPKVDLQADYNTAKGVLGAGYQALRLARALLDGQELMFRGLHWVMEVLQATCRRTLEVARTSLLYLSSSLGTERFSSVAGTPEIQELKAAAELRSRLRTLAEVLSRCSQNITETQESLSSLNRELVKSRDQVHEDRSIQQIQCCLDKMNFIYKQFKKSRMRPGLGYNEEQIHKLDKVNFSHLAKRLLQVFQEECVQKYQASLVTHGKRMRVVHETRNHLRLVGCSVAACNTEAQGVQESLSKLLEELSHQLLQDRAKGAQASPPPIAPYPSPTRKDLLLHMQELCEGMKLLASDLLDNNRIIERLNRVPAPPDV
How it was run: as §1

MET (cMet) = biological target: T11, MET (cMet) (Homo sapiens, UniProt P08581)
T11 construct: purchased Thermo Fisher Scientific
How it was run: as §1

FGFR4 = biological target: T12, FGFR4 (Homo sapiens, UniProt P22455)
T12 construct: purchased Thermo Fisher Scientific
How it was run: as §1

NEK6 = biological target: T13, NEK6 (Homo sapiens, UniProt Q9HC98)
T13 construct: purchased Thermo Fisher Scientific
How it was run: as §1

GRK4 = biological target: T14, GRK4 (Homo sapiens, UniProt P32298)
T14 construct: purchased Thermo Fisher Scientific
How it was run: as §1

KIT V560G = biological target: T15, KIT V560G (Homo sapiens, UniProt P10721, V560G)
T15 construct: purchased Thermo Fisher Scientific
How it was run: as §1

PRKCB1 (PKC beta I) = biological target: T16, PRKCB1 (PKC beta I) (Homo sapiens, UniProt P05771)
T16 construct: purchased Thermo Fisher Scientific
How it was run: as §1

CDC42 BPA (MRCKA) = biological target: T17, CDC42 BPA (MRCKA) (Homo sapiens, UniProt Q5VT25)
T17 construct: purchased Thermo Fisher Scientific
How it was run: as §1

MAPKAPK3 = biological target: T18, MAPKAPK3 (Homo sapiens, UniProt Q16644)
T18 construct: purchased Thermo Fisher Scientific
How it was run: as §1

T1 sequence (Q9UBS0 whole entry): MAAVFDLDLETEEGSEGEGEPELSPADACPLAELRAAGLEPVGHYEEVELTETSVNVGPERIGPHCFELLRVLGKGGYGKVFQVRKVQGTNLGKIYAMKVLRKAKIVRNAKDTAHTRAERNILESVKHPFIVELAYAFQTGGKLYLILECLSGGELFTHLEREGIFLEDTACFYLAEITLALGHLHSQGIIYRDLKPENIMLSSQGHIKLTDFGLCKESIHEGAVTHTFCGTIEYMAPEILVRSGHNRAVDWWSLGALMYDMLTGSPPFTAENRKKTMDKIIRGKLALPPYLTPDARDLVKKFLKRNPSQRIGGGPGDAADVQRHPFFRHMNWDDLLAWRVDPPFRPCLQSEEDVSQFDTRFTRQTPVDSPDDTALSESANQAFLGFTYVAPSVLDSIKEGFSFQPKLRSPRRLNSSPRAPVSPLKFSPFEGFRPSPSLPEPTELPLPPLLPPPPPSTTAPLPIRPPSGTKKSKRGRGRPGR
T3 sequence (P07947 whole entry): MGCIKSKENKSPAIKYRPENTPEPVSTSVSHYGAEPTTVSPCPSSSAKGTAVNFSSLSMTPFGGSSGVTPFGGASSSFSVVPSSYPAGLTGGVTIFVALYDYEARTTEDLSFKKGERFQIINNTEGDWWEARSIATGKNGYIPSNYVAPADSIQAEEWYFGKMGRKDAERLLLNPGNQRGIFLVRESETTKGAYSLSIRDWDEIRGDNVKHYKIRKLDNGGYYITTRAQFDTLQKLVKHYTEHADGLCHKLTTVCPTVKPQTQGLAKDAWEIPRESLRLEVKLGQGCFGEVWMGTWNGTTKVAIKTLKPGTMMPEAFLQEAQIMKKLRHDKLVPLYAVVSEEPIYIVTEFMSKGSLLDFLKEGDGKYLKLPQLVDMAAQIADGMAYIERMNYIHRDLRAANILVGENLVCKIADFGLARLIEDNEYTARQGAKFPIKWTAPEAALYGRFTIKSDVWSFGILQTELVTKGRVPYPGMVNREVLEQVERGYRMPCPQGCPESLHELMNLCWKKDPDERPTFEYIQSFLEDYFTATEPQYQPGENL
T17 sequence (Q5VT25 whole entry): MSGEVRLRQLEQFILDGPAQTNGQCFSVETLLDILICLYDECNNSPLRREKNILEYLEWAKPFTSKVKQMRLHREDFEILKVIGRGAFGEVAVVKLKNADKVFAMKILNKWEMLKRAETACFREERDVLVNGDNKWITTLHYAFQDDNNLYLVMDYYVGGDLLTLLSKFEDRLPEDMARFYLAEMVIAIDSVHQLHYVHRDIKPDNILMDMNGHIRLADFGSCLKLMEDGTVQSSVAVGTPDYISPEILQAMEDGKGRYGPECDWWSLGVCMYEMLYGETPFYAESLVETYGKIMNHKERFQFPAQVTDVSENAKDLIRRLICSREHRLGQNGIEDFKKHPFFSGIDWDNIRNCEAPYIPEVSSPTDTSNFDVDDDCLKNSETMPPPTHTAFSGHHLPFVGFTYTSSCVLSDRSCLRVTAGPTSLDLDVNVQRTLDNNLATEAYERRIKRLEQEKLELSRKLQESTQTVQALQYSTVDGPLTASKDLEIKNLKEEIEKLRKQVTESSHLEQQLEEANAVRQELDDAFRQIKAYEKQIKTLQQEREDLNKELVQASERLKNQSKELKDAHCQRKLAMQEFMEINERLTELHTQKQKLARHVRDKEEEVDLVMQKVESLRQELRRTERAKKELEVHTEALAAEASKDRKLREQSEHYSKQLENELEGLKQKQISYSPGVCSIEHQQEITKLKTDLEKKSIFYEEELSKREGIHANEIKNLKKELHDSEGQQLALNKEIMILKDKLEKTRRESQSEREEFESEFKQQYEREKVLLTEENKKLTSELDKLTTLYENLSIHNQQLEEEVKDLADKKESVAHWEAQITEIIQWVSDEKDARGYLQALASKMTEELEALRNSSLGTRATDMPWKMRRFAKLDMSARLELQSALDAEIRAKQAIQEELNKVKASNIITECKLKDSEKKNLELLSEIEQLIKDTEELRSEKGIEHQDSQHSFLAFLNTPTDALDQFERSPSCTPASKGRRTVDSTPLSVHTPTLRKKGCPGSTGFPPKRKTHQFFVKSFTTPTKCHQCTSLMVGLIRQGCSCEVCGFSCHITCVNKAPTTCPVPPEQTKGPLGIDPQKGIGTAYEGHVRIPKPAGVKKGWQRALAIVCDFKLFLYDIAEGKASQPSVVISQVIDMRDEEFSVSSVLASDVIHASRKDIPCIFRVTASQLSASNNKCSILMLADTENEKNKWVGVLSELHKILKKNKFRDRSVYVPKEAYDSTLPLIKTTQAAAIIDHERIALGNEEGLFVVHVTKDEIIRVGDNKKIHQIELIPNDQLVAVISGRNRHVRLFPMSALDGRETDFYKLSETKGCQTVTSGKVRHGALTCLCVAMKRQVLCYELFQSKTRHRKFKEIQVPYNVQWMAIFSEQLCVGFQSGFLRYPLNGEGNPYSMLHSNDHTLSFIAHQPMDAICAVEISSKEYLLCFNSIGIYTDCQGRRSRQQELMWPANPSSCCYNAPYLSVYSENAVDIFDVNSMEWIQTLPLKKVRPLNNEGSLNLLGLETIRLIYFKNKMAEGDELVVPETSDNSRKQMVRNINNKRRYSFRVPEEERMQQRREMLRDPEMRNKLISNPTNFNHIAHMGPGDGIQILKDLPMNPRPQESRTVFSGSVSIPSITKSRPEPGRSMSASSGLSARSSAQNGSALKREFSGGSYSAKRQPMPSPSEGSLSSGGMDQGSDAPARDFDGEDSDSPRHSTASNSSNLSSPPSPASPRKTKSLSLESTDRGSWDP
T13 sequence (Q9HC98 whole entry): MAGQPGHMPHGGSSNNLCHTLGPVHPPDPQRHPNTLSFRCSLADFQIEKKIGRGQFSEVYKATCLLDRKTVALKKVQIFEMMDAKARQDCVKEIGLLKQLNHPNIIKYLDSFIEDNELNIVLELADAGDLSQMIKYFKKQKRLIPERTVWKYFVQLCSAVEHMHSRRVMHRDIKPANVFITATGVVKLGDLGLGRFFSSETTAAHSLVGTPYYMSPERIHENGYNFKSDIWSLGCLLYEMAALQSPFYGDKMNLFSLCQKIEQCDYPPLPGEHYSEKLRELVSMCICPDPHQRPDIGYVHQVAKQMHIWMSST
T6 sequence (O75914 whole entry): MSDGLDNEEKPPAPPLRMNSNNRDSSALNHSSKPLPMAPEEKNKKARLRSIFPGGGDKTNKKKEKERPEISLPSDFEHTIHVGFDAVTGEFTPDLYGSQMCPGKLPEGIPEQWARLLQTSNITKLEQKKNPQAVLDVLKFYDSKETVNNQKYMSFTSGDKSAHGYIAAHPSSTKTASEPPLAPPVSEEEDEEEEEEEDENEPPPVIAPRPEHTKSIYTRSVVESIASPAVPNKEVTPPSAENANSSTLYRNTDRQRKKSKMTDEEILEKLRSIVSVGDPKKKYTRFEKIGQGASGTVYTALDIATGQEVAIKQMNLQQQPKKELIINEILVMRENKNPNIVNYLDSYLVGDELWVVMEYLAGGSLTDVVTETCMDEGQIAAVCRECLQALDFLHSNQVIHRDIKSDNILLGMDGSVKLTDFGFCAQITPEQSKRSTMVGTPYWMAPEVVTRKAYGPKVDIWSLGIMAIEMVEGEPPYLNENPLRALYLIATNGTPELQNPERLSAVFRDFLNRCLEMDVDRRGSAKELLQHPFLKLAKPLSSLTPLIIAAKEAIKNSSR
T2 sequence (O75582 whole entry): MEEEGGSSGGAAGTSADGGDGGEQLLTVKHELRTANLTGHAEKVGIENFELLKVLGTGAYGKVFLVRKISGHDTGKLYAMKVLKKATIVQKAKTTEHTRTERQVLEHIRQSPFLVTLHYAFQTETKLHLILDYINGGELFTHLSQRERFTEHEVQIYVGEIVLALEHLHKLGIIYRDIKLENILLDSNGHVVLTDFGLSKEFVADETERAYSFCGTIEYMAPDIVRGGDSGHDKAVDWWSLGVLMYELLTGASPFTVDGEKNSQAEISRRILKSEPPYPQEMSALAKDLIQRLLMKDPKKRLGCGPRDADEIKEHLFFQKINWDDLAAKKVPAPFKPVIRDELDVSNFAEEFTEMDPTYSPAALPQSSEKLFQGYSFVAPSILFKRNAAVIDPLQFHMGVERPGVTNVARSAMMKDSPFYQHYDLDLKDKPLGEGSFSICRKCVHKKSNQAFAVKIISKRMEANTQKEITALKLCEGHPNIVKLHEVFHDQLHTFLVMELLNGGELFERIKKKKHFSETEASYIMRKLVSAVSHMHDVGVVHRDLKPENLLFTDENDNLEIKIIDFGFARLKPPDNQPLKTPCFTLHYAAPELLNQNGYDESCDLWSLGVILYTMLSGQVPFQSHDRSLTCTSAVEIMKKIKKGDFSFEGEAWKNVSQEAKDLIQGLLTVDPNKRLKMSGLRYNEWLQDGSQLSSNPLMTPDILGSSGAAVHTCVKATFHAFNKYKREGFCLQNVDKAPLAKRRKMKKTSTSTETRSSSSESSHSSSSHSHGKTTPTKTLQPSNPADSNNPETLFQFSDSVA
T4 sequence (P19784 whole entry): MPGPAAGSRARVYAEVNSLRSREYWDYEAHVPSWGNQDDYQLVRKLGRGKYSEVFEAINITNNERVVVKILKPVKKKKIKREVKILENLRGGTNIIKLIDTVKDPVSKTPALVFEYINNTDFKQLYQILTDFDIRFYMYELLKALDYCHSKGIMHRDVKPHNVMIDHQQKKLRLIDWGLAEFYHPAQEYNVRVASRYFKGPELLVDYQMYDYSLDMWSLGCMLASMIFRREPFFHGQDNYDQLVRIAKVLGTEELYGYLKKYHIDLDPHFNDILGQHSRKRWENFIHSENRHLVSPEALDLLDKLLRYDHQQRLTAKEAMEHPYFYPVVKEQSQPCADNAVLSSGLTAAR

COc1ccc2cc3c(N)nn(C(=O)c4cccc(N(C)C)c4)c3nc2c1 [MW05, (3-Amino-7-methoxypyrazolo[3,4-b]quinolin-1-yl)-[3-(dimethylamino)phenyl]methanone]
inhibition at 1 µM (RPS6KB2 (p70S6Kb)): 3% | inhibition at 10 µM (RPS6KB2 (p70S6Kb)): 15% | inhibition at 1 µM (RPS6KA5 (MSK1)): 2% | inhibition at 10 µM (RPS6KA5 (MSK1)): -14% | inhibition at 1 µM (YES1): 15% | inhibition at 10 µM (YES1): 20% | inhibition at 1 µM (CSNK2A2 (CK2 alpha 2)): 7% | inhibition at 10 µM (CSNK2A2 (CK2 alpha 2)): 4% | inhibition at 1 µM (LRRK2 FL): -6% | inhibition at 10 µM (LRRK2 FL): 6% | inhibition at 1 µM (PAK3): 26% | inhibition at 10 µM (PAK3): 15% | inhibition at 1 µM (PTK2B (FAK2)): -2% | inhibition at 10 µM (PTK2B (FAK2)): -7% | inhibition at 1 µM (PRKCQ (PKC theta)): 2% | inhibition at 10 µM (PRKCQ (PKC theta)): -15% | inhibition at 1 µM (ABL1 T315I): 8% | inhibition at 10 µM (ABL1 T315I): 5% | inhibition at 1 µM (IKBKE (IKK epsilon)): 8% | inhibition at 10 µM (IKBKE (IKK epsilon)): 6% | inhibition at 1 µM (MET (cMet)): 5% | inhibition at 10 µM (MET (cMet)): -8% | inhibition at 1 µM (FGFR4): 13% | inhibition at 10 µM (FGFR4): -4% | inhibition at 1 µM (NEK6): 1% | inhibition at 10 µM (NEK6): -4% | inhibition at 1 µM (GRK4): -1% | inhibition at 10 µM (GRK4): 2% | inhibition at 1 µM (KIT V560G): 11% | inhibition at 10 µM (KIT V560G): 2% | inhibition at 1 µM (PRKCB1 (PKC beta I)): 5% | inhibition at 10 µM (PRKCB1 (PKC beta I)): -7% | inhibition at 1 µM (CDC42 BPA (MRCKA)): 9% | inhibition at 10 µM (CDC42 BPA (MRCKA)): 2% | inhibition at 1 µM (MAPKAPK3): 10% | inhibition at 10 µM (MAPKAPK3): 3%

COc1ccc2c(c1OC)c(=O)n1c3ccc(O)cc3c3ccnc2c31 [MW01, 5-Hydroxy-10,11-dimethoxy-9H-benzo[c]indolo[3,2,1-ij][1,5]naphthyridin-9-one]
inhibition at 1 µM (RPS6KB2 (p70S6Kb)): 7% | inhibition at 10 µM (RPS6KB2 (p70S6Kb)): 1% | inhibition at 1 µM (RPS6KA5 (MSK1)): 5% | inhibition at 10 µM (RPS6KA5 (MSK1)): 25% | inhibition at 1 µM (YES1): 17% | inhibition at 10 µM (YES1): 16% | inhibition at 1 µM (CSNK2A2 (CK2 alpha 2)): 16% | inhibition at 10 µM (CSNK2A2 (CK2 alpha 2)): 29% | inhibition at 1 µM (LRRK2 FL): 85% | inhibition at 10 µM (LRRK2 FL): 90% | inhibition at 1 µM (PAK3): 10% | inhibition at 10 µM (PAK3): 15% | inhibition at 1 µM (PTK2B (FAK2)): 2% | inhibition at 10 µM (PTK2B (FAK2)): 9% | inhibition at 1 µM (PRKCQ (PKC theta)): 4% | inhibition at 10 µM (PRKCQ (PKC theta)): 21% | inhibition at 1 µM (ABL1 T315I): 9% | inhibition at 10 µM (ABL1 T315I): 34% | inhibition at 1 µM (IKBKE (IKK epsilon)): 11% | inhibition at 10 µM (IKBKE (IKK epsilon)): 17% | inhibition at 1 µM (MET (cMet)): 14% | inhibition at 10 µM (MET (cMet)): 35% | inhibition at 1 µM (FGFR4): 13% | inhibition at 10 µM (FGFR4): 37% | inhibition at 1 µM (NEK6): 4% | inhibition at 10 µM (NEK6): -4% | inhibition at 1 µM (GRK4): 8% | inhibition at 10 µM (GRK4): 12% | inhibition at 1 µM (KIT V560G): 12% | inhibition at 10 µM (KIT V560G): 7% | inhibition at 1 µM (PRKCB1 (PKC beta I)): 1% | inhibition at 10 µM (PRKCB1 (PKC beta I)): -17% | inhibition at 1 µM (CDC42 BPA (MRCKA)): 11% | inhibition at 10 µM (CDC42 BPA (MRCKA)): 15% | inhibition at 1 µM (MAPKAPK3): 8% | inhibition at 10 µM (MAPKAPK3): 24%
